Common to all, as to format: cell-based
In one test the target is T1, TRPC4 channels (Homo sapiens, UniProt Q9UBN4).
T1 construct: expressed in transfected cells; host or cells: HEK 293 (transient)
T1 sequence (Q9UBN4 1-977): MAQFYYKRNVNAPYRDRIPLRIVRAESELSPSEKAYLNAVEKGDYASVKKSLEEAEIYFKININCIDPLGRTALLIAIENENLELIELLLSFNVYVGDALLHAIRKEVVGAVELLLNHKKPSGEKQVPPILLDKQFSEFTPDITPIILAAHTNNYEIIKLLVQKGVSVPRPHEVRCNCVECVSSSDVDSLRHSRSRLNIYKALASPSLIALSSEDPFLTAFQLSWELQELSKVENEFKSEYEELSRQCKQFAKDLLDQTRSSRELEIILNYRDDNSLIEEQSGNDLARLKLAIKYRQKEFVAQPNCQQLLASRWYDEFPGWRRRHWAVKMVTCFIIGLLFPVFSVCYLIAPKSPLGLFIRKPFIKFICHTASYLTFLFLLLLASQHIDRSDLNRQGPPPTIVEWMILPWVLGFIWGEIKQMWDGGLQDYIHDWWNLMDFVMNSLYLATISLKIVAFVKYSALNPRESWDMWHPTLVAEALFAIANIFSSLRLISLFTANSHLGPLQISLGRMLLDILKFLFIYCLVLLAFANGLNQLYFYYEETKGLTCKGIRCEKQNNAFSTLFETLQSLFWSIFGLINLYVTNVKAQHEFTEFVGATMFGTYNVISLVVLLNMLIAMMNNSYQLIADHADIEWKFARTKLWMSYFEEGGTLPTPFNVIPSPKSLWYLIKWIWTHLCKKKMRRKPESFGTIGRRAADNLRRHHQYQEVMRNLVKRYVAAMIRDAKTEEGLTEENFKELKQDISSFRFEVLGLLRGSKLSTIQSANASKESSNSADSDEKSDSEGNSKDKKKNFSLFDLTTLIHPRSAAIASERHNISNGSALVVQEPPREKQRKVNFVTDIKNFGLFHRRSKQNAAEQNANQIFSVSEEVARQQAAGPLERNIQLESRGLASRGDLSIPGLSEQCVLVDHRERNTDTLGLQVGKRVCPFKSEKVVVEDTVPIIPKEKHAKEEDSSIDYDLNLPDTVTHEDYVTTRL
Description: Excised outside-out patch-clamp, HEK 293 cells transiently expressing hTRPC4. As to conditions: 30 nM EA; at 3 to 100 nM AM237. Here is the method:
(§1) For electrophysiology experiments, cells were plated at a low density of 20–30% onto round or square glass coverslips (13 mm diameter or 5 × 5 mm), and TRPC expression in HEK T‐REx was induced with 1 μg·ml^−1 tetracycline 24 hr before experimentation. Experiments were carried out at room temperature. Extracellular solution consisted of SBS. Patch‐clamp recordings were performed in whole‐cell mode (Figure S7) and in excised outside‐out patch mode under voltage clamp at room temperature using 2–4 MΩ patch pipettes fabricated from borosilicate glass capillaries with an outside diameter of 1 mm and an inside diameter of 0.58 mm (Harvard Apparatus). The voltage protocol comprised voltage ramps applied from −100 to +100 mV every 10 s from a holding potential of 0 mV. The patch‐clamp currents were recorded using Axopatch 200B or HEKA EPC‐800 amplifiers, digitized by a Digidata 1440 or PCI6229 (National Instruments Japan, Tokyo, Japan) and recorded to a computer using pCLAMP10 (Molecular Devices) or WinWCPV4.5 (developed by Dr John Dempster, University of Strathclyde, UK). The data were filtered at 1 kHz and analysed offline using Clampfit 10.2 software or WinWCPV4.5 and Origin 9.1 software (OriginLab, Northampton, MA). […]
In general terms: The patch-clamp technique gives a direct electrical read-out from membranes.

The target of a further test is T2, TRPC6 (Homo sapiens, UniProt Q9Y210).
T2 construct: expressed in transfected cells; host or cells: WT HEK 293 (transient, jetPRIME; pcDNA3)
T2 sequence (Q9Y210 1-931): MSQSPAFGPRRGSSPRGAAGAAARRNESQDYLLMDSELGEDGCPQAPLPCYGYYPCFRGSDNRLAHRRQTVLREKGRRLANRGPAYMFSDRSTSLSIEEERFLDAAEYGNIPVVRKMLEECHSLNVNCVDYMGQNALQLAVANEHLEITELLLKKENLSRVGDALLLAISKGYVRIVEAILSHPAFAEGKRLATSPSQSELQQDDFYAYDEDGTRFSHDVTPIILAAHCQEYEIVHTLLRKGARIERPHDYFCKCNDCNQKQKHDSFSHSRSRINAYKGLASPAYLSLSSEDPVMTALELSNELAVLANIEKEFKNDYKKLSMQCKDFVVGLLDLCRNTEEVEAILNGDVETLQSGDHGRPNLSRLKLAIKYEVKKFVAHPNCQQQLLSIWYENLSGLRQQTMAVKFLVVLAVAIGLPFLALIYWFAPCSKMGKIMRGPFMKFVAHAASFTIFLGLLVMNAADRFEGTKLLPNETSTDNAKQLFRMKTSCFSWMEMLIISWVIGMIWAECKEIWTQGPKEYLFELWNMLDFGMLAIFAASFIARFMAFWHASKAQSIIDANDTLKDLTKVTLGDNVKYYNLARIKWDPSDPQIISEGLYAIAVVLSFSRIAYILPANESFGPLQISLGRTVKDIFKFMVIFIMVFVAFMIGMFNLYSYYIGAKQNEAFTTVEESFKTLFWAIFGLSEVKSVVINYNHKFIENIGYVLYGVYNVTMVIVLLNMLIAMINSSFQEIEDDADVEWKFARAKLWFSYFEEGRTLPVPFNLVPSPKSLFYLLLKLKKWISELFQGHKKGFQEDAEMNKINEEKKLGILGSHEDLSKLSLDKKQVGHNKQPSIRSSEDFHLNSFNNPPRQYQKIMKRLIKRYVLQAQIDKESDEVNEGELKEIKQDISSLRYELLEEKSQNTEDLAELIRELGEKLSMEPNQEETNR
The experiment in a line: [Ca2+]i selectivity assay, WT HEK 293 cells transiently transfected with hTRPC6, OAG activation. As to conditions: 300 nM AM237; 100 μM OAG.

Another test concerns the target TRPC4:C1 channels (Homo sapiens, UniProt P48995+Q9UBN4). Description: Excised outside-out patch-clamp, HEK 293 cells transiently co-expressing hTRPC4 and hTRPC1. The arrangement: expressed in transfected cells; host or cells: HEK 293 (transient co-expression). The settings on record: 30 nM EA; at 3 to 100 nM AM237. Here is the method:
as §1

The values below come from paper PMC6811774, “Potent, selective, and subunit‐dependent activation of TRPC5 channels by a xanthine derivative” (British Journal of Pharmacology, 2019).

The structures appear in SMILES notation.

Sequence of TRPC4:C1 channels (P48995 whole entry, one chain of several): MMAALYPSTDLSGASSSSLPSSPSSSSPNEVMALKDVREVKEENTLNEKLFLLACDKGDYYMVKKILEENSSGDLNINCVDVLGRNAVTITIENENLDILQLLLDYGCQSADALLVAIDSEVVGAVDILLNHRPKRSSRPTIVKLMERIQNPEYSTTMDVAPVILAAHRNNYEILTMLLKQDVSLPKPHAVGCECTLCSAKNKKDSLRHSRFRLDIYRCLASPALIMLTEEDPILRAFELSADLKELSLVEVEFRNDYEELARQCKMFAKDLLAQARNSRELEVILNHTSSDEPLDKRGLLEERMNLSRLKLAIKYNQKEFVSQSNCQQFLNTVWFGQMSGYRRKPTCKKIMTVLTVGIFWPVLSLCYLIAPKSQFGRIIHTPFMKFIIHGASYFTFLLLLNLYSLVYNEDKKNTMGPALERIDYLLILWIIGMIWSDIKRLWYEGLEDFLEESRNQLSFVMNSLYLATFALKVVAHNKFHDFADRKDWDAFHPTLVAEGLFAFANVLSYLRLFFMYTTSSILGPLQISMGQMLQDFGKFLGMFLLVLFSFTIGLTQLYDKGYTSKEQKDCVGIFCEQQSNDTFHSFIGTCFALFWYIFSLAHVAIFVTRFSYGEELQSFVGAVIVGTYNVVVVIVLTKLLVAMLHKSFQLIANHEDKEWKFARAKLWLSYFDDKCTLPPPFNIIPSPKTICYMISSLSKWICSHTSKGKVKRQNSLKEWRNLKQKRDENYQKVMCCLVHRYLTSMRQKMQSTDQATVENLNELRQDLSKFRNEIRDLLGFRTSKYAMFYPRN

In the case of `Cn1c(=O)n(CCCO)c(=O)c2c1nc(Oc1ccc(Cl)c(OC(F)(F)F)c1)n2Cc1ccc(Cl)cc1` [AM237], the “Inhibition of currents induced by EA” value on TRPC4 channels and at TRPC4:C1 channels was “full inhibition” each time. Further, the “Activation or inhibition of TRPC6” value at TRPC6 is reported as “no activation or inhibition”.
